Values quoted from earlier work, collected in US12364687B2 (BIOHAVEN PHARMACEUTICAL HOLDING COMPANY LTD., priority 2018, dated 2025).

Details: taken with meals

Nc1nc2ccc(OC(F)(F)F)cc2s1 [riluzole, 6-(trifluoromethoxy)benzothiazol-2-amine]
food effect on exposure: reduced exposure when taken with meals
